Measured values reported in the OligoGym collection.
After the bases stand the sugars from the 5' end (letter, count) and the backbone: PS all phosphorothioate, else s phosphorothioate and o phosphodiester by linkage. Methylation of C is not given here. l = locked nucleic acid (LNA); d = 2'-deoxy (DNA)

Biological target: SNHG14
Details: ASO

TTTCTTACTATCTTCA (sugars l4 d10 l2, PS) gave a target mRNA inhibition (Human Neuronal Cell, 0.2 µM) of 53% and a target mRNA inhibition (Human Neuronal Cell, 1 µM) of 61%.

For CATTCAACCCTAATCA (sugars l3 d10 l3, PS), the target mRNA inhibition (Human Neuronal Cell, 0.2 µM) was 26% and the target mRNA inhibition (Human Neuronal Cell, 1 µM) was 38%.

ACCACCTAAGACCTCA (sugars l2 d11 l3, PS) was tested, and the target mRNA inhibition (Human Neuronal Cell, 0.2 µM) was 45% and the target mRNA inhibition (Human Neuronal Cell, 1 µM) was 44%.

With “CTCAAAGATCATTCTCA (sugars l1 d2 l1 d7 l6, PS)” the target mRNA inhibition (Human Neuronal Cell, 7.5 µM) was 16%.

In the case of TCTCTAATCCTATTCC (sugars l4 d10 l2, PS), the target mRNA inhibition (Human Neuronal Cell, 0.2 µM) is reported as 53% and the target mRNA inhibition (Human Neuronal Cell, 1 µM) is reported as 58%.

“GTTTATACCCTTTCCAAT (sugars l1 d2 l1 d12 l2, PS)” gave a target mRNA inhibition (Human Neuronal Cell, 7.5 µM) of 61%.

With “TTTATTTCCATTTATTTTCA (sugars ldldddddddddddlddlll, PS)” the target mRNA inhibition (Human Neuronal Cell, 7.5 µM) was 60%.

AGCACATATACCATCA (sugars l4 d10 l2, PS) showed a target mRNA inhibition (Human Neuronal Cell, 0.2 µM) of 51% and a target mRNA inhibition (Human Neuronal Cell, 1 µM) of 56%.

Work on “TTTTTTTCTTACTATCTTCA (sugars l2 d3 l1 d12 l2, PS)” yielded a target mRNA inhibition (Human Neuronal Cell, 7.5 µM) of 14%.

With “GCACATTCTTTCTATAC (sugars l1 d1 l3 d9 l3, PS)” the target mRNA inhibition (Human Neuronal Cell, 7.5 µM) was 50%.

“TTCTGTATACACCATCC (sugars l1 d1 l1 d12 l2, PS)” gave a target mRNA inhibition (Human Neuronal Cell, 7.5 µM) of 62%.

For “ATTGATTCAATTCCCTT (sugars lddldddddddlldlll, PS)”, the target mRNA inhibition (Human Neuronal Cell, 7.5 µM) was 61%.

“TTCCATTTATTTCCATTTAT (sugars ldldddldddddddldddll, PS)” showed a target mRNA inhibition (Human Neuronal Cell, 7.5 µM) of 56%.

With “CTGTATACACCATCCCA (sugars ldldlddddddddddll, PS)” the target mRNA inhibition (Human Neuronal Cell, 7.5 µM) was 61%.

Sequence “AGATCATTCTCAACAATTA (sugars ldlddldddddddllldll, PS)” has a target mRNA inhibition (Human Neuronal Cell, 7.5 µM) of 50%.

In the case of TCCTCTGCTTATAACT (sugars l3 d11 l2, PS), the target mRNA inhibition (Human Neuronal Cell, 0.2 µM) is reported as 51% and the target mRNA inhibition (Human Neuronal Cell, 1 µM) is reported as 77%.

In the case of “TATTGATTCAATTCCCT (sugars l1 d2 l1 d10 l3, PS)”, the target mRNA inhibition (Human Neuronal Cell, 7.5 µM) is reported as 72%.

“TATTGATTCAATTCCCT (sugars l1 d10 l1 d2 l3, PS)” was tested, and the target mRNA inhibition (Human Neuronal Cell, 7.5 µM) was 65%.

“TATACCTTTCTTTAACCCTT (sugars l1 d15 l1 d1 l2, PS)” was tested, and the target mRNA inhibition (Human Neuronal Cell, 7.5 µM) was 58%.

Sequence “ATCTCATGACCACCTAA (sugars l1 d12 l4, PS)” has a target mRNA inhibition (Human Neuronal Cell, 7.5 µM) of 48%.

Sequence “GAATCTTCTAATTCCAC (sugars l2 d11 l4, PS)” has a target mRNA inhibition (Human Neuronal Cell, 0.2 µM) of 29% and a target mRNA inhibition (Human Neuronal Cell, 1 µM) of 31%.

Sequence “TTTACACTTAATTATACTTC (sugars lldddldddddddlllldll, PS)” has a target mRNA inhibition (Human Neuronal Cell, 7.5 µM) of 51%.

With “CAACATTATTAACCACCTTA (sugars lddddllddddddddlddll, PS)” the target mRNA inhibition (Human Neuronal Cell, 7.5 µM) was 47%.

Sequence GCTCACACTAATTATT (sugars l2 d10 l4, PS) has a target mRNA inhibition (Human Neuronal Cell, 0.2 µM) of 25% and a target mRNA inhibition (Human Neuronal Cell, 1 µM) of 43%.

For “TTATAGCCATTCTATCT (sugars l3 d1 l1 d10 l2, PS)”, the target mRNA inhibition (Human Neuronal Cell, 7.5 µM) was 65%.

“ATTGATTCAATTCCCTT (sugars l1 d1 l2 d9 l4, PS)” was tested, and the target mRNA inhibition (Human Neuronal Cell, 7.5 µM) was 67%.

“ATATTGATTCAATTCCC (sugars l1 d2 l1 d7 l6, PS)” showed a target mRNA inhibition (Human Neuronal Cell, 7.5 µM) of 51%.

Work on “AATTTTTTTCTTACTATCTT (sugars lldllldddddddddldlll, PS)” yielded a target mRNA inhibition (Human Neuronal Cell, 7.5 µM) of 57%.

“CTTTCCATTTATTTCCATT (sugars llddldddddddddlddll, PS)” was tested, and the target mRNA inhibition (Human Neuronal Cell, 7.5 µM) was 61%.

“TTATAGCCATTCTATCT (sugars l2 d1 l1 d11 l2, PS)” showed a target mRNA inhibition (Human Neuronal Cell, 7.5 µM) of 62%.

“CTCAAAGATCATTCTCA (sugars l3 d10 l1 d1 l2, PS)” gave a target mRNA inhibition (Human Neuronal Cell, 7.5 µM) of 61%.

In the case of CAAATACAGATTATCC (sugars l2 d10 l4, PS), the target mRNA inhibition (Human Neuronal Cell, 0.2 µM) is reported as 49% and the target mRNA inhibition (Human Neuronal Cell, 1 µM) is reported as 59%.

“GTTCTACTATACTTTCCT (sugars l1 d2 l1 d12 l2, PS)” gave a target mRNA inhibition (Human Neuronal Cell, 7.5 µM) of 53%.

For “AAAATCTCAACTACCATTTT (sugars l3 d11 l2 d1 l3, PS)”, the target mRNA inhibition (Human Neuronal Cell, 7.5 µM) was 12%.

For “TCTTTCCATTTATTTCCATT (sugars l2 d4 l1 d10 l3, PS)”, the target mRNA inhibition (Human Neuronal Cell, 7.5 µM) was 57%.

With “AAGATCATTCTCAACAAT (sugars l2 d2 l2 d6 l6, PS)” the target mRNA inhibition (Human Neuronal Cell, 7.5 µM) was 47%.

“GTTTCCATCTACTATTAA (sugars l3 d1 l1 d9 l4, PS)” gave a target mRNA inhibition (Human Neuronal Cell, 7.5 µM) of 55%.

Work on “TCTTCAGCTTTCTAAAT (sugars l4 d11 l2, PS)” yielded a target mRNA inhibition (Human Neuronal Cell, 0.2 µM) of 5% and a target mRNA inhibition (Human Neuronal Cell, 1 µM) of 24%.

“TTCAGCTTTTAACCAGAGT (sugars l2 d14 l3, PS)” was tested, and the target mRNA inhibition (Human Neuronal Cell, 7.5 µM) was 73%.

Work on TATAGCCATTCTATCT (sugars l4 d10 l2, PS) yielded a target mRNA inhibition (Human Neuronal Cell, 0.2 µM) of 61% and a target mRNA inhibition (Human Neuronal Cell, 1 µM) of 67%.

“TTTTTATACCTTTCTTTAAC (sugars llldlddddddddldldlll, PS)” gave a target mRNA inhibition (Human Neuronal Cell, 7.5 µM) of 62%.

Work on GACCACACTTTCTACC (sugars l2 d12 l2, PS) yielded a target mRNA inhibition (Human Neuronal Cell, 0.2 µM) of 18% and a target mRNA inhibition (Human Neuronal Cell, 1 µM) of 42%.

ATCATCAGTTACATCA (sugars l4 d10 l2, PS) showed a target mRNA inhibition (Human Neuronal Cell, 0.2 µM) of 62% and a target mRNA inhibition (Human Neuronal Cell, 1 µM) of 63%.

Sequence “GTTTCCATCTACTATTAA (sugars lllddlddddddldddll, PS)” has a target mRNA inhibition (Human Neuronal Cell, 7.5 µM) of 47%.

ACTGATTTCCTTAAAC (sugars l4 d10 l2, PS) gave a target mRNA inhibition (Human Neuronal Cell, 0.2 µM) of 24% and a target mRNA inhibition (Human Neuronal Cell, 1 µM) of 52%.

In the case of “ACATCTCATACTTGCTT (sugars l2 d11 l4, PS)”, the target mRNA inhibition (Human Neuronal Cell, 0.2 µM) is reported as -4%, the target mRNA inhibition (Human Neuronal Cell, 1 µM) is reported as 7% and the target mRNA inhibition (Human Neuronal Cell, 5 µM) is reported as 9%. For the same sequence, the target mRNA inhibition (Mouse Primary Neuronal Cell, 0.005 µM) was 96%.
